Experimental data published in patent US7323460B2, “N-(substituted benzyl)-8-hydroxy-1,6-naphthyridine-7-carboxamides useful as HIV integrase inhibitors” (Merck & Co., Inc., priority 2002, dated 2008).

Key:
HIV = experiment: Antiviral potency in the presence of human serum proteins; type: cell-based; conditions: relative to closely related N-benzyl-8-hydroxy-1,6-naphthyridine carboxamide integrase inhibitors without ortho polar substituent
[1] = system: HIV mutants that are resistant to other integrase inhibitors; experiment: Antiviral activity against HIV mutants resistant to other integrase inhibitors; type: cell-based
[2] = target: T1, HIV integrase (recombinant integrase) (Human immunodeficiency virus type 1 group M subtype B, UniProt P04585); experiment: HIV integrase assay: strand transfer catalyzed by recombinant integrase; type: biochemical
T1 construct: HIV Integrase Assay: Strand Transfer Catalyzed by Recombinant Integrase
Method: HIV Integrase Assay: Strand Transfer Catalyzed by Recombinant Integrase
Assays for the strand transfer activity of integrase were conducted in accordance with the method described in Example 193 of WO 02/30930 for recombinant integrase.
Further description on conducting the assay using preassembled complexes is found in Wolfe, A. L. et al., J. Virol. 1996, 70: 1424-1432, Hazuda et al., J. Virol. 1997, 71: 7005-7011; Hazuda et al., Drug Design and Discovery 1997, 15: 17-24; and Hazuda et al., Science 2000, 287: 646-650.

Structure (SMILES)	antiviral potency in the presence of human serum proteins (HIV)	antiviral activity against several HIV mutants resistant to other integrase inhibitors [1]	IC50 [2]
CNC(=O)c1cc(F)ccc1CNC(=O)c1nc(N2CCCCS2(=O)=O)c2cccnc2c1O [Compound A, N-{4-fluoro-2-[(methylamino)carbonyl]benzyl}-5-(1,1-dioxido-1,2-thiazinan-2-yl)-8-hydroxy-1,6-naphthyridine-7-carboxamide]	improved	retention of significant antiviral activity	
CNC(=O)c1cc(F)ccc1CNC(=O)c1nc(N2CCCCS2(=O)=O)c2cccnc2c1O [Example 3, Sodium 5-(1,1-dioxido-1,2-thiazinan-2-yl)-7-[({4-fluoro-2-[(methylamino)carbonyl]-benzyl}amino)carbonyl]-1,6-naphthyridin-8-olate]			< 500 nM
